The results in this text go back to patent publication US12410262B2, “Peptide conjugates of cytotoxins as therapeutics” (Cybrexa 2, Inc., priority 2019, dated 2025).

SMILES strings stand for the structures. Where two headings read alike, the source gives them in different places. Residues, ends and D or L forms follow the SMILES beside them. *: point of attachment. X2 = CC[C@@]1(O)C(=O)OCc2c1cc1n(c2=O)Cc2c-1nc1cc(F)c(C)c3c1c2[C@@H](NC(=O)O[C@H](C)[C@@H](C)S*)CC3; X6 = CC[C@@]1(O)C(=O)OCc2c1cc1n(c2=O)Cc2c-1nc1cc(F)c(C)c3c1c2[C@@H](NC(=O)OCC1(S*)CCC1)CC3

As a reminder, the IC50 is the concentration that gives 50% inhibition.

Assay in all cases: cells
In one assay the test system is FaDu. The class given is cell-based. How it is done: (§1) Cells were plated in 96 well black walled-clear bottom plates (Griener), DLD-1 WT cells at 2500 cells per well, FaDu, and HeLa cells at 5000 cells per well, and HCT116 at 3000 cells per well, in growth media containing 10% FBS. Cells were allowed to adhere at room temperature for 60 minutes before returning to a 37 C, 5% CO2 incubator. After 24 hours, media was removed and replaced with fresh growth media containing various drug concentrations. Each drug concentration was added in triplicate. Non-drug treated controls contained growth media only. Cells were returned to the incubator. Ninety-six hours after addition of drug, cells were fixed with 4% paraformaldehyde for 20 minutes and stained with Hoechst at 1 ug/mL. The plates were imaged on a Cytation 5 auto imager (BioTek) and cells were counted using CellProfiler (http://cellprofiler.org). The percent cell growth delay was calculated and data plotted using GraphPad Prism

A further assay deals with HeLa cells. It counts as cell-based. The method, then: as §1
The subject of the next assay is HCT116. The class given is cell-based, human. In a few lines:
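DLD-1 WT (2500/well), FaDu and HeLa (5000/well) and HCT116 (3000/well) were grown in 10% FBS media and dosed in triplicate 24 h after plating. After 96 h of drug exposure at 37 °C, cells were fixed, Hoechst-stained and counted by imaging; percent growth delay was calculated versus untreated controls.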

In a further assay the test system is DLD-1 WT cells. It counts as cell-based. Particulars: 96 h. How it is done: as §1

`CC[C@H](C)[C@H](NC(=O)[C@@H]1CCCN1C(=O)[C@H](CC(N)=O)NC(=O)[C@H](CCC(N)=O)NC(=O)[C@H](CCC(=O)O)NC(=O)[C@H](C)N)C(=O)N[C@@H](Cc1ccc(O)cc1)C(=O)N[C@@H](Cc1c[nH]c2ccccc12)C(=O)N[C@@H](C)C(=O)N[C@@H](CCCNC(=N)N)C(=O)N[C@@H](Cc1ccc(O)cc1)C(=O)N[C@@H](C)C(=O)N[C@@H](CC(=O)O)C(=O)N[C@@H](Cc1c[nH]c2ccccc12)C(=O)N[C@@H](CC(C)C)C(=O)N[C@@H](Cc1ccccc1)C(=O)N[C@H](C(=O)N[C@H](C(=O)N1CCC[C@H]1C(=O)N[C@@H](CC(C)C)C(=O)N[C@@H](CC(C)C)C(=O)N[C@@H](CC(C)C)C(=O)N[C@@H](CC(C)C)C(=O)N[C@@H](CC(=O)O)C(=O)N[C@@H](CC(C)C)C(=O)N[C@@H](C)C(=O)N[C@@H](CC(C)C)C(=O)N[C@@H](CC(C)C)C(=O)N[C@H](C(=O)N[C@@H](CC(=O)O)C(=O)N[C@@H](C)C(=O)N[C@@H](CC(=O)O)C(=O)N[C@@H](CCC(=O)O)C(=O)N[C@@H](CSSC1(COC(=O)N[C@H]2CCc3c(C)c(F)cc4nc5c(c2c34)Cn2c-5cc3c(c2=O)COC(=O)[C@]3(O)CC)CCC1)C(=O)NCC(=O)O)C(C)C)[C@@H](C)O)[C@@H](C)O` [Compound 3] (H-AEQNPIYWARYADWLFTTPLLLLDLALLVDADEC(X6)G-OH; N-terminus and C-terminus assumed): the IC50 was 5.9 nM with FaDu (FaDu cells, 96 h after addition of drug, read-out: FaDu (IC50)); 7.6 nM in the assay with HeLa cells (HeLa cells, 96 h after addition of drug, read-out: HeLa (IC50)); 8.33 nM in the assay with HCT116 (HCT116 cells, 96 h after addition of drug, read-out: HCT116 (IC50)).

Regarding `CC[C@H](C)[C@H](NC(=O)[C@@H]1CCCN1C(=O)[C@H](CC(N)=O)NC(=O)[C@H](CCC(N)=O)NC(=O)[C@H](CCC(=O)O)NC(=O)[C@H](C)N)C(=O)N[C@@H](Cc1ccc(O)cc1)C(=O)N[C@@H](Cc1c[nH]c2ccccc12)C(=O)N[C@@H](C)C(=O)N[C@@H](CCCNC(=N)N)C(=O)N[C@@H](Cc1ccc(O)cc1)C(=O)N[C@@H](C)C(=O)N[C@@H](CC(=O)O)C(=O)N[C@@H](Cc1c[nH]c2ccccc12)C(=O)N[C@@H](CC(C)C)C(=O)N[C@@H](Cc1ccccc1)C(=O)N[C@H](C(=O)N[C@H](C(=O)N1CCC[C@H]1C(=O)N[C@@H](CC(C)C)C(=O)N[C@@H](CC(C)C)C(=O)N[C@@H](CC(C)C)C(=O)N[C@@H](CC(C)C)C(=O)N[C@@H](CC(=O)O)C(=O)N[C@@H](CC(C)C)C(=O)N[C@@H](C)C(=O)N[C@@H](CC(C)C)C(=O)N[C@@H](CC(C)C)C(=O)N[C@H](C(=O)N[C@@H](CC(=O)O)C(=O)N[C@@H](C)C(=O)N[C@@H](CC(=O)O)C(=O)N[C@@H](CCC(=O)O)C(=O)N[C@@H](CSS[C@H](C)[C@@H](C)OC(=O)N[C@H]1CCc2c(C)c(F)cc3nc4c(c1c23)Cn1c-4cc2c(c1=O)COC(=O)[C@]2(O)CC)C(=O)NCC(=O)O)C(C)C)[C@@H](C)O)[C@@H](C)O` [Compound 4] (H-AEQNPIYWARYADWLFTTPLLLLDLALLVDADEC(X2)G-OH; N-terminus and C-terminus assumed), the IC50 with DLD-1 WT cells amounted to 0.8 nM; in the assay on FaDu (96 h) it was 0.06 nM; in the assay with HeLa cells (96 h), 0.07 nM; with HCT116 (96 h), 0.1 nM.
